# In US20220387397A1, “COMPOUNDS AND COMPOSITIONS FOR TREATING CONDITIONS ASSOCIATED WITH NLRP ACTIVITY” (Novartis AG, priority 2018, published 2022):
# Test system: IL-1β production in PMA-differentiated THP-1 cells
# Experiment: IL-1β production in PMA-differentiated THP-1 cells stimulated with gramicidin (hTHP-1 assay, 2% bovine serum)
# Type: cell-based, human
# Details: hTHP-1 assay containing 2% bovine serum
# Method: The following protocols are suitable for testing the activity of the compounds dislcosed herein. Bioassay 1:
# IL-1β Production in PMA-Differentiated THP-1 Cells Stimulated with Gramicidin.
# Cell culture-THP-1 cells were purchased from the American Type Culture Collection and sub-cultured according to instructions from the supplier. Prior to experiments, cells were cultured in RPMI 1640 containing 10% heat inactivated FBS, penicillin (100 units/ml) and streptomycin ([…]), and maintained in log phase prior to experimental setup. Prior to the experiment THP-1 were treated with PMA (Phorbol 12-myristate 13-acetate) ([…]) for 24 hours. The day of the experiment the media was removed and attaching cells were treated with trypsin for 2 minutes, cells were then collected, washed with PBS (phosphate buffer saline), spin down, resuspended in 2% heat inactivated FBS with RPMI at a concentration of 1×10^6 cells/ml, and 100 ul was plated in a 96 well plate. Cells were incubated with compounds for 1 hours and then stimulated with Gramicidin (5 μM) (Enzo) for 2 hours. Cell free supernatant was collected and the production of […] was evaluated by ELISA. Compounds were dissolved in dimethyl sulfoxide (DMSO) and added to the culture medium to achieve desired concentration (e.g. 100, 30, 10, 3, 1, 0.3 or 0.1 μM). A vehicle only control was run concurrently with each experiment. Final DMSO concentration was 1%.
# THP-1 cells were purchased from the American Type Culture Collection and sub-cultured according to instructions from the supplier. Prior to experiments, cells were cultured in complete RPMI 1640 (containing 10% heat inactivated FBS, penicillin (100 units/ml) and streptomycin ([…])), and maintained in log phase prior to experimental setup. Prior to the experiment THP-1 were treated with PMA (Phorbol 12-myristate 13-acetate) (20 ng/ml) for 16-18 hours. On the day of the experiment the media was removed and adherent cells were detached with trypsin for 5 minutes. Cells were then harvested, washed with complete RPMI 1640, spun down, resuspended in RPMI 1640 (containing 2% heat inactivated FBS, penicillin (100 units/ml) and streptomycin ([…]). The cells were plated in a 384-well plate at a density of 50,000 cells/well (final assay volume […]). Compounds were dissolved in dimethyl sulfoxide (DMSO) and added to the culture medium to achieve desired concentration (e.g. 100, 33, 11, 3.7, 1.2, 0.41, 0.14, 0.046, 0.015, 0.0051, […]). Cells were incubated with compounds for 1 hour and then stimulated with gramicidin (5 μM) (Enzo) for 2 hours. Cell free supernatant was collected and the production of IL-1 was evaluated by HTRF (cisbio). A vehicle only control was run concurrently with each experiment. Final DMSO concentration was 0.38%.
# Compounds tested with protocols 1 and 2 provided IC50 values that are within the variability of the assay.
# Tables 13 and 14 show the biological activity of compounds in hTHP-1 assay containing 2% bovine serum: <1 μM=“++++”; ≥1 and <5 μM=“+++”; ≥5 and <15 μM=“++”; ≥15 and <60 μM=“+”.
# [1] = Homo sapiens, THP-1, Table 14, by Final Target Number
# [2] = Homo sapiens, THP-1, Table 14, given as a numeric bound
# [3] = Homo sapiens, THP-1, Table 13, by Example #
compound,measurement,setting,value
CC(C)c1cc(C#N)c(F)c(C(C)C)c1CC(=O)NS(=O)(=O)c1cnc(C(C)(O)CO)s1 (centres unmarked) [Compound 401],IC50,[1],1 to 5 µM
CNC(=O)c1ccc(S(=O)(=O)NC(=O)Cc2c(C(C)C)cc(C#N)c(F)c2C(C)C)cc1O [Compound 402],IC50,[1],15 to 60 µM
CNS(=O)(=O)c1ccc(S(=O)(=O)NC(=O)Cc2c(C(C)C)cc(C#N)c(F)c2C(C)C)c(Cl)c1 [Compound 404],IC50,[1],< 1 µM
CC(C)c1cc(C#N)c(F)c(C(C)C)c1CC(=O)NS(=O)(=O)c1cnc(C(C)(O)CO[C@@H]2O[C@H](CO)[C@@H](O)[C@H](O)[C@H]2O)s1 (some centres unmarked) [Compound 405],IC50,[1],5 to 15 µM
CC(C)c1cc(C#N)c(F)c(C(C)C)c1CC(=O)NS(=O)(=O)c1cnc(C(C)(C)O)nc1 [Compound 406],IC50,[1],5 to 15 µM
CC(C)c1cc(C#N)c(F)c(C(C)C)c1CC(=O)NS(=O)(=O)c1cccc(-n2cc(CNC(=O)OC(C)(C)C)nn2)c1 [Compound 407],IC50,[1],15 to 60 µM
CC(C)c1cc(C#N)c(F)c(C(C)C)c1CC(=O)NS(=O)(=O)c1cccc(NC(=O)CCc2cn(CCNC(=O)OC(C)(C)C)nn2)c1 [Compound 408],IC50,[2],> 30 µM
CC(C)c1cc(C#N)cc(C(C)C)c1CC(=O)NS(=O)(=O)c1cnc(C(C)(C)O)nc1 [Compound 409],IC50,[1],5 to 15 µM
CC(C)c1cc(F)cc(C(C)C)c1CC(=O)NS(=O)(=O)c1ccc([C@@H](C)N(C)C(=O)CCc2cn(CCOCCOCCOCCNC(=O)CCCC[C@@H]3SC[C@@H]4NC(=O)N[C@@H]43)nn2)cc1 [Compound 410],IC50,[2],> 30 µM
CC(C)c1cc(F)cc(C(C)C)c1CC(=O)NS(=O)(=O)c1ccc([C@H](C)N(C)C(=O)CCc2cn(CCOCCOCCOCCNC(=O)CCCC[C@H]3SC[C@@H]4NC(=O)N[C@@H]43)nn2)cc1 [Compound 411],IC50,[2],> 30 µM
CC(C)c1cc(C2(C(F)(F)F)N=N2)cc(C(C)C)c1CC(=O)NS(=O)(=O)c1ccc(CN(C)C(=O)CCCN(C)C(=O)CCOCCOCCOCCOCCNC(=O)CCCC[C@H]2SC[C@@H]3NC(=O)N[C@@H]32)cc1 [Compound 412],IC50,[2],> 30 µM
CC(C)c1cc(F)cc(C(C)C)c1CC(=O)NS(=O)(=O)c1ccc(C(C)N(C)C(=O)CCc2cn(CCOCCOCCOCCNC(=O)CCCC[C@@H]3SC[C@@H]4NC(=O)N[C@@H]43)nn2)cc1 (some centres unmarked) [Compound 415],IC50,[2],> 30 µM
CC(C)c1cc(C#N)c(F)c(C(C)C)c1CC(=O)NS(=O)(=O)c1cc(C(C)(C)O)no1 [Compound 416],IC50,[1],< 1 µM
"CC(C)(O)c1csc(S(=O)(=O)NC(=O)Cc2c3c(cc4c2CCC4)CCC3)c1 [Example 7, 2-(1,2,3,5,6,7-hexahydros-indacen-4-yl)-N-(4-(2-hydroxypropan-2-yl)thiophen-2-ylsulfonyl)acetamide]",IC50,[3],5 to 15 µM
CC(=O)c1ccc(F)c(S(=O)(=O)NC(=O)Cc2c(C(C)C)cc(F)cc2C(C)C)c1 [Example 55],IC50,"Table 13, by Example #",1 to 5 µM
"CCc1cc(C(C)C)c(CC(=O)NS(=O)(=O)c2ccc(CN(C)C)cc2)c(C(C)C)c1 [Example 97, N-((4-((dimethylamino)methyl)phenyl)sulfonyl)-2-(4-ethyl-2,6-diisopropylphenyl)acetamide]",IC50,[3],5 to 15 µM
"N-(4-pentafluorophenylsulfonyl)-2-(4-fluoro-2,6-diisopropylphenyl)acetamide [Example 39]",IC50,"Table 13, by Example #",15 to 60 µM
